Source: article PMC5537068, “Endoglucanase activity at a second site in Pyrococcus furiosus triosephosphate isomerase—Promiscuity or compensation for a metabolic handicap?” (FEBS Open Bio, 2017)
pKd: −log10 of the molar value.

Columns and labels:
[1] = target: T1, PfuTIM (Pyrococcus furiosus, UniProt P62002); assay: intrinsic tryptophan fluorescence quenching, hyperbolic fit; assay type: binding
T1 construct: gene tpiA; full-length, 6xHis tag from pQE30 (BamHI/HindIII), tag kept; E. coli M15[pREP4]; IMAC and gel filtration; monomer ~25 kDa; octamer in Tris, hexamer in phosphate

[2] = target: T1, PfuTIM; assay: inhibition of cellobioside-resorufin hydrolysis, absorbance at […] nm; assay type: biochemical; conditions: enzyme 2 μM; cellobioside-resorufin 100 μM; norharman 25 μM; endoglucanase activity; headed as competitive
[3] = target: T1, PfuTIM; assay: resorufin release, absorbance at […] nm; assay type: biochemical; conditions: pH 6.0, 35 °C; phosphate-purified enzyme 2 μM; substrate 2.5-250 μM; promiscuous endoglucanase activity, second site
[4] = target: T2, PfuTIM (Pyrococcus furiosus, UniProt P62002, E144G); assay: resorufin release, absorbance at […] nm; assay type: biochemical; conditions: 37 °C, overnight incubation
T2 construct: gene tpiA; full-length, 6xHis tag from pQE30 (BamHI/HindIII), tag kept; E. coli M15[pREP4]; IMAC and gel filtration; monomer ~25 kDa; octamer in Tris, hexamer in phosphate
T2 sequence (P62002 whole entry E144G): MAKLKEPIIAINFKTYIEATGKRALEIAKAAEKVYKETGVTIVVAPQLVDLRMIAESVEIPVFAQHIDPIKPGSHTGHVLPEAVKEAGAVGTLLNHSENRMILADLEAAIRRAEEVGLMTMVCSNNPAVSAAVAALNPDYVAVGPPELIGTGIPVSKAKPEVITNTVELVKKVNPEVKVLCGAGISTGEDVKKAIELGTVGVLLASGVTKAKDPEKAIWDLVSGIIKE

T1 sequence (P62002 whole entry): as the sequence (P62002 whole entry E144G) above, with G144E counted along it

Row | Km [3] | Compound | pKd [1] | complete inhibition at 25 μM [2] | % of wild-type activity [4]
1 | – | c1ccc2c(c1)[nH]c1cnccc12 [norharman] | ~4.08 | With norharman, complete inhibition of endoglucanase/cellulase activity is seen | –
2 | ~ 53.62 ± 4.05 μM | O=c1ccc2nc3ccc(O[C@@H]4O[C@H](CO)[C@@H](O[C@@H]5O[C@H](CO)[C@@H](O)[C@H](O)[C@H]5O)[C@H](O)[C@H]4O)cc3oc-2c1 [cellobioside–resorufin] | – | – | percentages of activity with respect to the wild‐type protein are plotted, for assays with cellobioside–resorufin
